Data on 7 compounds can be found in US6043212A, “Recombinant C140 receptor, its agonists and antagonists, and nucleic acids encoding the receptor” (COR Therapeutics, Inc., priority 1995, dated 2000).

SMILES strings stand for the structures. Peptide text beside a SMILES is read from it.

The target in this test is T1, wild-type mouse C140 receptor (Mus musculus, UniProt P55086).
T1 construct: Native receptors were produced by cloning the coding region of the receptor gene; expressed in transfected cells; host or cells: Xenopus laevis oocytes injected with capped cRNA from pSG-5 C140
T1 sequence (P55086 32-399 limits assumed): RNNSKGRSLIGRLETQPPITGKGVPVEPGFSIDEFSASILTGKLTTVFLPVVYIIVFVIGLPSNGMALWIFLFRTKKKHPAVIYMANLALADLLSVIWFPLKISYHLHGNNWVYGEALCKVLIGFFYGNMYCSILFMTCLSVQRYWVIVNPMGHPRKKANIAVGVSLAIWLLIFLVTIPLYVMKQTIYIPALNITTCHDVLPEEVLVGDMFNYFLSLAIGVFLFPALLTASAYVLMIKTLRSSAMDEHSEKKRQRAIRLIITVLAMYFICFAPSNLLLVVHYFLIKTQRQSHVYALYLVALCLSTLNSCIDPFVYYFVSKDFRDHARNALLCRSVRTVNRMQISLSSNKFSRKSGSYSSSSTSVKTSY
In words: 45Ca release by Xenopus oocytes expressing wild-type mouse C140 receptor. Type of test: cell-based. To be noted: Table 2; peptides at 100 μM; wild-type mouse C140 receptor in oocytes. As to the method: Agonist-induced increases in ^45 Ca release by oocytes expressing cRNA encoding C140 receptor or other recombinant cells producing C140 receptor are assessed by published techniques (Williams, J. A., et al., Proc Natl Acad Sci USA (1988) 85:4939-4943). Briefly, intracellular calcium pools are labeled by incubating groups of 30 oocytes in 300 μl calcium-free modified Barth's solution (MBSH) containing 50 μCi ^45 CaCl2 (10-40 mCi/mg Ca; Amersham) for 4 hours at RT. The labeled oocytes or cells are washed, then incubated in MBSH II without antibiotics for 90 minutes. Groups of 5 oocytes are selected and placed in individual wells in a 24-well tissue culture plate (Falcon 3047) containing 0.5 ml/well MBSH II without antibiotics. This medium is removed and replaced with fresh medium every 10 minutes; the harvested medium is analyzed by scintillation counting to determine ^45 Ca released by the oocytes during each 10-minute incubation. The 10-minute incubations are continued until a stable baseline of ^45 Ca release per unit time is achieved. Two additional 10-minute collections are obtained, then test medium including agonist is added and agonist-induced ^45 Ca release determined.
Oocytes from Xenopus laevis were harvested and prepared using published techniques (Coleman, A., in Hames, B. D., and Higgins, S. J., eds, Transcription and Translation: A Practical Approach, IRL Press, pp. 271-302; Williams, J. A., et al. Proc Natl Acad Sci USA (1988) 85:4939-4943]. To remove follicular cells, oocytes were incubated for 1.5 h with shaking in calcium-free Barth's containing 2 mg/ml each of collagenase 1A and hyaluronidase 1S. The oocytes were then washed five times in regular Barth's and incubated at 18° C. in Barth's medium containing 100 U/ml penicillin, 100 μg/ml streptomycin, and 2.5 mM sodium pyruvate. Stage V oocytes were selected and injected with 30 nl of cRNA (0.33 μg/μl water) or water alone, and then incubated with 0.25 ml of medium in groups of four/well in a 96-well culture plate. After 36 hours the oocytes were incubated with ^45 Ca (250 μCi/ml). After 12 h incubation the oocytes were washed and 0.2 ml of medium added and replaced every five minutes. The harvested medium was analyzed by scintillation counting. After five replacements to determine the baseline release of ^45 Ca, test medium with the agonist, e.g. SLIGRL (SEQ ID NO: 23), was added and the evoked ^45 Ca-release determined.
Oocytes were injected with capped cRNA (ca 10 ng) encoding wild-type mouse C140 receptor (WT) or either of the three mutant receptors 35Pro, 35Arg and 35His. After 36 hours, cRNA-injected and control water-injected, oocytes were loaded with ^45 Ca, and 12 hours thereafter peptide or trypsin-induced ^45 Ca release were determined as described above. The peptide SLIGRL (SEQ ID NO: 23) was added at 100 μM, and trypsin at 300 pM. The stimulation with the peptide was done on the same group of oocytes after the stimulation with trypsin. The data shown in Table 1 represent the mean of three replicate determinations, and denotes the increase compared to oocytes injected with water.
Various peptides were tested at 100 μM in the assay above using wild-type mouse C140 receptor, expressed in oocytes.
Consider `CC[C@H](C)[C@H](NC(=O)[C@H](CC(C)C)NC(=O)[C@H](C)N)C(=O)NCC(=O)N[C@@H](CCCNC(=N)N)C(=O)N[C@@H](CC(C)C)C(=O)O` [ALIGRL] (H-ALIGRL-OH), for which the “Fold increase in 45Ca” value is on record as 1.3 fold.
Next, `CC[C@H](C)[C@H](NC(=O)[C@H](C)NC(=O)[C@@H](N)CO)C(=O)NCC(=O)N[C@@H](CCCNC(=N)N)C(=O)N[C@@H](CC(C)C)C(=O)O` [SAIGRL] (H-SAIGRL-OH): 0 fold; `CC(C)C[C@H](NC(=O)[C@H](Cc1ccccc1)NC(=O)[C@H](Cc1ccccc1)NC(=O)[C@@H](N)CO)C(=O)N[C@@H](CCCNC(=N)N)C(=O)N[C@@H](Cc1c[nH]c2ccccc12)C(=O)O` [SFFLRW, reference compound] (H-SFFLRW-OH): 1.7 fold; `CC(C)C[C@H](NC(=O)[C@H](CCCNC(=N)N)NC(=O)CNC(=O)[C@H](C)NC(=O)[C@H](CC(C)C)NC(=O)[C@@H](N)CO)C(=O)O` [SLAGRL] (H-SLAGRL-OH): 0 fold.
For the compound `CC[C@H](C)[C@H](NC(=O)[C@H](CC(C)C)NC(=O)[C@@H](N)CO)C(=O)N[C@@H](C)C(=O)N[C@@H](CCCNC(=N)N)C(=O)N[C@@H](CC(C)C)C(=O)O` [SLIARL] (H-SLIARL-OH), the “Fold increase in 45Ca” value was 4.3 fold.
In the case of `CC[C@H](C)[C@H](NC(=O)[C@H](CC(C)C)NC(=O)[C@@H](N)CO)C(=O)NCC(=O)N[C@@H](C)C(=O)N[C@@H](CC(C)C)C(=O)O` [SLIGAL] (H-SLIGAL-OH), the “Fold increase in 45Ca” value was found to be 0 fold.
Next, `CC[C@H](C)[C@H](NC(=O)[C@H](CC(C)C)NC(=O)[C@@H](N)CO)C(=O)NCC(=O)N[C@@H](CCCNC(=N)N)C(=O)N[C@@H](C)C(=O)O` [SLIGRA] (H-SLIGRA-OH): 8.5 fold.
